Test results reported in patent publication US20170107207A1, “AMINOPYRAZOLONE DERIVATIVE” (DAIICHI SANKYO COMPANY, LIMITED, priority 2014, published 2017).

Tests used:
TIP48/TIP49 complex = molecular target: T1, TIP48/TIP49 complex (Homo sapiens, UniProt Q9Y230+Q9Y265); assay: ATPase assay of TIP48/TIP49 complex (ADP-Glo); assay type: biochemical; conditions: concentration at which the ATPase activity was inhibited by 50%
T1 construct: made in house; host or cells: E. coli
Text: The ATPase activity of the TIP48/TIP49 complex can be measured by use of an ATPase assay described below in Test Examples 1 and 2. The ATPase activity of the TIP48/TIP49 complex can be measured, as described below in the Test Examples, for example, by using recombinant human TIP48 and TIP49 proteins (hereinafter, referred to as rTIP48 and rTIP49) and ATP in the presence or absence of a test compound and measuring the amount of ADP formed through hydrolysis by the ATPase activity of the TIP48/TIP49 complex, using ADP-Glo. Alternatively, the ATPase activity of the TIP48/TIP49 complex can be measured by a method described in, for example, J. Mol. Biol. 366, 172-179 (2007).
An ATPase assay of a TIP48/TIP49 complex was conducted using rTIP48 and rTIP49. Human TIP48 and TIP49 DNAs were purchased from Open Biosystems. Human TIP48 and TIP49 cDNAs cloned by PCR using the purchased DNAs were each integrated into plasmids for expression in E. coli and expressed in E. coli to obtain rTIP48 and rTIP49.
A test compound was dissolved at 10 mM using DMSO. The solution was diluted to 10 concentrations as 4-fold serial dilutions from 10 mM using DMSO.
A 2×assay buffer (100 mM Tris-HCl, pH 7.5, 100 mM NaCl, 40 mM MgCl2, 2 mM DTT, 20 μM ATP, and 0.2 mg/mL BSA) was dispensed at 24.5 μL/well to a 384-well assay plate.
Test compound solutions were dispensed thereto at 1 μL/well. Subsequently, the solution in each well was mixed using a plate mixer.
rTIP48 and rTIP49 were diluted to a concentration of 50 μg/mL using sterilized water. The diluted solution was dispensed at 24.5 μL/well to the 384-well assay plate. Subsequently, the solution in each well was mixed using a plate mixer (final concentration: 24.5 μg/mL) (concentration of each test compound solution: 200 μM, 50 μM, 12.5 μM, 3.12 μM, 0.78 μM, 0.20 μM, 0.049 μM, 0.012 μM, 0.003 μM, and 0.0007 μM; DMSO concentration: 2%).
After the mixing using the plate mixer, the assay plate was left standing at room temperature for 1.5 hours.
5 μL of the solution in each well was transferred to a white assay plate, and ADP-Glo Reagent from ADP-Glo Kinase Assay (Promega Corp., catalog No. V9101) was dispensed thereto at 5 μL/well. After completion of the reaction, the plate was left standing at room temperature for 40 minutes. Kinase Detection Reagent was further dispensed thereto at 5 μL/well, and the plate was left standing at room temperature for 30 minutes. Then, luminescence intensity was measured using a plate reader.
The ATPase inhibitory activity was calculated according to the expression given below.
The luminescence intensity of a well supplemented with the test compound and the TIP48/TIP49 complex was defined as A. The luminescence intensity of a well supplemented with only the TIP48/TIP49 complex was defined as B. The luminescence intensity of a well supplemented with neither the test compound nor the TIP48/TIP49 complex was defined as C. The ratio between the test compound-supplemented group and the test compound-nonsupplemented group (T/C value) was determined according to the following calculation expression:
The dose-response curve was calculated using GraphPad Prism 4 from the concentration of each of the serially diluted test compounds and the ATPase inhibitory activity (%) at this concentration.

[1] = system: human lymphoma cell line RAMOS cells; assay: Cell growth inhibition test using RAMOS cell, ATP assay (CellTiter-Glo); assay type: cell-based; conditions: cultured 3 days, 50% growth inhibition concentration
Experimental: A cell growth inhibition test was carried out by treating human lymphoma cell line RAMOS cells with a test compound for a given period and then counting the number of viable cells by MTT assay or CellTiter-Glo Luminescent Cell Viability Assay (manufactured by Promega Corp.; hereinafter, referred to as ATP assay).
RAMOS cells were inoculated at 4000 cells/40 μL/well to a 384-well plate containing the compound prepared in advance at predetermined concentrations. The cells thus inoculated were cultured at 37° C. for 3 days under 5% CO2. In order to measure a cell survival rate, CellTiter-Glo Reagent was added in an amount corresponding to 1/4 of the amount of the culture solution at the day of cell inoculation and at the final culture date and stirred at room temperature for 2 minutes. Then, luminescence intensity was measured using a plate reader. The cell survival rate was calculated according to the expression given below.
The number of viable cells and luminescence intensity have been confirmed to correlate with each other. Therefore, the rate of cell growth was calculated according to the following expression: Rate of cell growth (T/C %) of a test compound-supplemented well=100×[(B−C)/(A−C)] wherein A represents the luminescence intensity (final culture date) of a test compound-free well; B represents the luminescence intensity (final culture date) of a test compound-containing well; and C represents the luminescence intensity (day of cell inoculation) of a well at the start of contact of the cells with the test compound.
T/C % at each concentration of the test compound was determined. The concentration at which the test compound offered 50% growth rate was calculated as a GI50 value from the growth rates at two points interpolating 50% and the concentrations, and is shown in Table 56.

T1 sequence (Q9Y230 whole entry): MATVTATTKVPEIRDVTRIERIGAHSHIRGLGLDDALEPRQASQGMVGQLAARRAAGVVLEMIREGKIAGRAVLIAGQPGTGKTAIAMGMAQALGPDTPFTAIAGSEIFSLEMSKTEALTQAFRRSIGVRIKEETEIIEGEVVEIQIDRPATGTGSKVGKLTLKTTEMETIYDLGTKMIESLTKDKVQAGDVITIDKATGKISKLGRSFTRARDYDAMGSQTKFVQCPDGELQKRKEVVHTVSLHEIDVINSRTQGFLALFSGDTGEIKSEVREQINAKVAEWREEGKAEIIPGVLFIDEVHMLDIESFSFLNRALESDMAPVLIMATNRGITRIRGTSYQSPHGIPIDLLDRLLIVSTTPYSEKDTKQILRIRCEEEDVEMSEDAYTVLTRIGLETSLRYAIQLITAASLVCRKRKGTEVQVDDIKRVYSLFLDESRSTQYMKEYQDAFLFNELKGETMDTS
T1 sequence (Q9Y265 whole entry): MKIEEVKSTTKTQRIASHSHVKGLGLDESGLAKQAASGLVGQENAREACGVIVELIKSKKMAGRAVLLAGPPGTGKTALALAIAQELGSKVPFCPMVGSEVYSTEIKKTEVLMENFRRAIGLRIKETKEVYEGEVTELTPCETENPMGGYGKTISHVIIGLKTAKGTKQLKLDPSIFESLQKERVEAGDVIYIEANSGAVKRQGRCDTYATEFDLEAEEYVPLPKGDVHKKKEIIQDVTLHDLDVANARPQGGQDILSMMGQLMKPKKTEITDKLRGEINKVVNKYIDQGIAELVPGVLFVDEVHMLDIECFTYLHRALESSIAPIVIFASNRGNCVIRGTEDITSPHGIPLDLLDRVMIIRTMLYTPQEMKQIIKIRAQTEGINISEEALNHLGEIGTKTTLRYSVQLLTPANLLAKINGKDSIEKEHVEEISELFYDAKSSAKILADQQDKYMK

IC50 (TIP48/TIP49 complex) | GI50 ([1]; Homo sapiens, Ramos, 72 h) | GI50 [1] | Compound
110 nM | 300 nM | – | CCOc1ncc(Cl)cc1C(=O)NCC(C)(C)CC(=O)Nc1c(C(C)NC)n(C)n(-c2ccccc2)c1=O (single isomer, unassigned) [Example 85, (+)-/(−)-5-Chloro-N-[2,2-dimethyl-4-({1-methyl-5-[1-(methylamino)ethyl]-3-oxo-2-phenyl-2,3-dihydro-1H-pyrazol-4-yl}amino)-4-oxobutyl]-2-ethoxypyridine-3-carboxamide]
65 nM | – | 490 nM | CCOc1ncc(Cl)cc1C(=O)NCC(C)(C)CC(=O)Nc1c(C(CN(C)C)OC)n(C)n(-c2ccccc2)c1=O (single isomer, unassigned; (+)) [Example 83, (+)-5-Chloro-N-[4-({5-[2-(dimethylamino)-1-methoxyethyl]-1-methyl-3-oxo-2-phenyl-2,3-dihydro-1H-pyrazol-4-yl}amino)-2,2-dimethyl-4-oxobutyl]-2-ethoxypyridine-3-carboxamide]
49 nM | 370 nM | – | CCOc1ncc(Cl)cc1C(=O)NCC(C)(C)CC(=O)Nc1c(C(CN(C)C)OC)n(C)n(-c2ccccc2)c1=O (single isomer, unassigned; (-)) [Example 82, (−)-5-Chloro-N-[4-({5-[2-(dimethylamino)-1-methoxyethyl]-1-methyl-3-oxo-2-phenyl-2,3-dihydro-1H-pyrazol-4-yl}amino)-2,2-dimethyl-4-oxobutyl]-2-ethoxypyridine-3-carboxamide]
90 nM | – | 180 nM | CCOc1ncc(Cl)cc1C(=O)NCC(C)(C)CC(=O)Nc1c(C(C)NC)n(C)n(-c2ccccc2)c1=O (single isomer, unassigned; (-)) [Example 86, (−)-5-Chloro-N-[2,2-dimethyl-4-({1-methyl-5-[1-(methylamino)ethyl]-3-oxo-2-phenyl-2,3-dihydro-1H-pyrazol-4-yl}amino)-4-oxobutyl]-2-ethoxypyridine-3-carboxamide]
170 nM | 130 nM | – | CCOc1ccc(Cl)cc1C(=O)NCC(C)(C)CC(=O)Nc1c(C(C)NC)n(C)n(-c2ccccc2)c1=O (stereo not drawn) [Example 1, 5-Chloro-N-[2,2-dimethyl-4-({1-methyl-5-[1-(methylamino)ethyl]-3-oxo-2-phenyl-2,3-dihydro-1H-pyrazol-4-yl}amino)-4-oxobutyl]-2-ethoxybenzamide]
160 nM | 250 nM | – | CCOc1ncc(Cl)cc1C(=O)NCC(C)(C)CC(=O)Nc1c(C(C)NC)n(C)n(-c2ccccc2)c1=O (stereo not drawn) [Example 2, 5-Chloro-N-[2,2-dimethyl-4-({1-methyl-5-[1-(methylamino)ethyl]-3-oxo-2-phenyl-2,3-dihydro-1H-pyrazol-4-yl}amino)-4-oxobutyl]-2-ethoxypyridine-3-carboxamide]
76 nM | 570 nM | – | COCc1cc2cc(Cl)cc(C(=O)NCC(C)(C)CC(=O)Nc3c(CCN(C)C)n(C)n(-c4ccccc4)c3=O)c2o1 [Example 15, 5-Chloro-N-[4-({5-[2-(dimethylamino)ethyl]-1-methyl-3-oxo-2-phenyl-2,3-dihydro-1H-pyrazol-4-yl}amino)-2,2-dimethyl-4-oxobutyl]-2-(methoxymethyl)benzofuran-7-carboxamide]
68 nM | 570 nM | – | CN(C)CCc1c(NC(=O)CC(C)(C)CNC(=O)c2cc(Cl)cc3c2OCCO3)c(=O)n(-c2ccccc2)n1C [Example 16, 7-Chloro-N-[4-({5-[2-(dimethylamino)ethyl]-1-methyl-3-oxo-2-phenyl-2,3-dihydro-1H-pyrazol-4-yl}amino)-2,2-dimethyl-4-oxobutyl]-2,3-dihydro-1,4-benzodioxine-5-carboxamide]
33 nM | 130 nM | – | CCOc1ccc(Cl)cc1C(=O)NCC(C)(C)CC(=O)Nc1c(CCNCC(F)(F)F)n(C)n(-c2ccccc2)c1=O [Example 26, 5-Chloro-N-[2,2-dimethyl-4-({1-methyl-3-oxo-2-phenyl-5-[2-(2,2,2-trifluoroethylamino)ethyl]pyrazol-4-yl}amino)-4-oxobutyl]-2-ethoxybenzamide]
48 nM | 130 nM | – | CCOc1cc(F)c(Cl)cc1C(=O)NCC(C)(C)CC(=O)Nc1c(CCNCC(F)(F)F)n(C)n(-c2ccccc2)c1=O [Example 27, 5-Chloro-N-[2,2-dimethyl-4-({1-methyl-3-oxo-2-phenyl-5-[2-(2,2,2-trifluoroethylamino)ethyl]-2,3-dihydro-1H-pyrazol-4-yl}amino)-4-oxobutyl]-2-ethoxy-4-fluorobenzamide]
48 nM | 200 nM | – | COCOc1ccc(Cl)cc1C(=O)NCC(C)(C)CC(=O)Nc1c(CCN(C)C)n(C)n(-c2ccccc2)c1=O [Example 28, 5-Chloro-N-[4-({5-[2-(dimethylamino)ethyl]1-methyl-3-oxo-2-phenyl-2,3-dihydro-1H-pyrazol-4-yl}amino)-2,2-dimethyl-4-oxobutyl]-2-(methoxymethoxy)benzamide]
48 nM | 150 nM | – | COCOc1cc(F)c(Cl)cc1C(=O)NCC(C)(C)CC(=O)Nc1c(CCN(C)C)n(C)n(-c2ccccc2)c1=O [Example 29, 5-Chloro-N-[4-({5-[2-(dimethylamino)ethyl]1-methyl-3-oxo-2-phenyl-2,3-dihydro-1H-pyrazol-4-yl}amino)-2,2-dimethyl-4-oxobutyl]-4-fluoro-2-(methoxymethoxy)benzamide]
94 nM | 480 nM | – | CCOc1ncc(Br)cc1C(=O)NCC(C)(C)CC(=O)Nc1c(CCN(C)C)n(C)n(-c2ccccc2)c1=O [Example 30, 5-Bromo-N-[4-({5-[2-(dimethylamino)ethyl]1-methyl-3-oxo-2-phenyl-2,3-dihydro-1H-pyrazol-4-yl}amino)-2,2-dimethyl-4-oxobutyl]-2-ethoxypyridine-3-carboxamide]
52 nM | 170 nM | – | [2H]C([2H])([2H])N(CCc1c(NC(=O)CC(C)(C)CNC(=O)c2cc(Cl)ccc2OCC)c(=O)n(-c2ccccc2)n1C)C([2H])([2H])[2H] [Example 31, N-{4-[(5-{2-[bis(trideuteriomethyl)amino]ethyl}-1-methyl-3-oxo-2-phenyl-2,3-dihydro-1H-pyrazol-4-yl)amino]-2,2-dimethyl-4-oxobutyl}-5-chloro-2-ethoxybenzamide]
130 nM | 1300 nM | – | CCOc1ccc(Cl)cc1NC(=O)CC1(CC(=O)Nc2c(CCN(C)C)n(C)n(-c3ccccc3)c2=O)CCCC1 [Example 32, N-(5-chloro-2-ethoxyphenyl)-2-{1-[2-({5-[2-(dimethylamino)ethyl]-1-methyl-3-oxo-2-phenyl-2,3-dihydro-1H-pyrazol-4-yl}amino)-2-oxoethyl]cyclopentyl}acetamide]
